Measured values published in ChEMBL document CHEMBL1124942, “[D-Pen2,D-Pen5]enkephalin analogues with increased affinity and selectivity for delta opioid receptors” (J Med Chem, 1990).

Assays:
[1] = species: Mus musculus; assay: Inhibitory potency was evaluated using electrically induced smooth muscle contractions of mouse vas deferens (MVD).; assay type: functional, organism-based
[2] = species: Cavia porcellus; assay: Inhibitory potency was evaluated using strips of guinea pig ileum (GPI) longitudinal muscle-myenteric plexus.; assay type: functional, organism-based

Compound	IC50 [1] [µM]	IC50 [2] [µM]
CC1(C)SSC(C)(C)[C@@H](NC(=O)[C@@H](N)Cc2ccc(O)cc2)C(=O)NCC(=O)N[C@@H](Cc2ccc(Br)cc2)C(=O)N[C@H]1C(=O)O	0.0015	13.4
CC1(C)SSC(C)(C)[C@@H](NC(=O)[C@@H](N)Cc2ccc(O)cc2)C(=O)NCC(=O)N[C@@H](Cc2ccc(F)cc2)C(=O)N[C@H]1C(=O)O	0.00084	5.03
CC1(C)SSC(C)(C)[C@@H](NC(=O)[C@@H](N)Cc2ccc(O)cc2)C(=O)NCC(=O)N[C@@H](Cc2ccc(I)cc2)C(=O)N[C@H]1C(=O)O	0.00265	46.1
CC1(C)SSC(C)(C)[C@@H](NC(=O)[C@@H](N)Cc2ccc(O)cc2)C(=O)NCC(=O)N[C@@H](Cc2ccc(Cl)cc2)C(=O)N[C@H]1C(=O)O	0.00089	4.83
